Type in all cases: cell-based, human
The subject of assay [1] is PANC-1 pancreatic cancer cells. In words: PANC-1 pancreatic cancer cell proliferation (MTS assay). Here is the method:
FIG. 13 depicts higher proliferation rates in pancreatic cancer cells in fructose (5.5 mM) than glucose (5.5 mM) containing medium in accordance with an embodiment of the present invention. PANC-1 cells were pre-incubated in 2 mM glucose, after which they were plated in 5.5 mM fructose or glucose for times between 12-72 h, after which proliferative rates were measured using an MTS assay. Proliferative rates are expressed as the percentage difference between cells grown in 5.5 mM fructose versus 5.5 mM glucose. p<0.01 for times>48 h.
FIG. 14 depicts proliferation rates of pancreatic cells in different fructose or glucose concentrations in accordance with an embodiment of the present invention. PANC-1 cells were plated in a range of fructose or glucose concentrations (5-25 mM) for 72 h, after which proliferative rates were measured using an MTS assay. *, p<0.05 for concentrations between 5-25 mM fructose versus glucose.
FIG. 17 depicts cell proliferation regardless of co-existent glucose concentration in accordance with an embodiment of the present invention. PANC-1 cells were pre-incubated in 2 mM glucose prior to treatment with a range of concentrations (0-15 mM) mixed with a range of fructose concentrations (0-15 mM) for 72 h. PANC-1 cell proliferative rates were then measured using the MTS assay (absorbance in arbitrary units).
FIG. 35 depicts inhibition of pancreatic cancer PANC-1 cell proliferation by incubation with the transketolase inhibitor, oxythiamine (0.5-2 mM) for 72 h in accordance with an embodiment of the present invention. Proliferative rates were measured using the MTS proliferation assay.
Standard media for maintenance cancer cell line culture, including pancreatic cancer cells such as PANC-1 cells contain either low—(5-7 mM), or high—(12-25 mM) glucose concentrations. Clearly, apart from the setting of hyperglycemia, as in patients with diabetes, the glucose concentrations in which pancreatic cancer cells are maintained in vitro are much higher than normal physiological conditions, which range between 2-5 mM glucose. […] Therefore, the inventors first pre-treated the pancreatic cancer cells overnight in standard DMEM medium containing low physiological glucose concentrations (2 mM glucose), and standard 10% fetal bovine serum. The pancreatic cancer cells were then incubated for times between 12, and 96 hours in standard DMEM medium containing 10% fetal bovine serum, and 5.5 mM glucose or 5.5 mM fructose. Proliferative rates were then measured in replicate (minimum of 6) aliquot wells of the pancreatic cancer cells, and the change (expressed as percent increase) in proliferative rates compared between cells grown in glucose, or fructose containing medium.
This first result intrigued the inventors, but given there is little documentation regarding physiological fructose concentrations, the inventors first considered that the “apparent” pro-proliferative effects of fructose were simply a consequence of the highly stylized in vitro experimental conditions, and that if the pancreatic cancer cells were cultured in higher glucose concentrations, this would result in similar proliferative rates to those the inventors observed following culture in 5.5 mM fructose. Therefore, in the next experiments, the inventors compared proliferative rates of the PANC-1 pancreatic cancer cells following culture for 72 h in a range of fructose, and glucose concentrations (2-25 mM). This timepoint was chosen as the inventors had seen maximal pancreatic cancer cell proliferation in 5.5 mM fructose at 72 h. […] While not wishing to be bound by any particular theory, the inventors believe that this latter finding may be because the PANC-1 cells are proliferating at close to maximal capacity by 72 h, once they are exposed to comparatively low fructose concentrations (5 mM). MTS assay was employed to measure pancreatic cancer cell proliferative rates, which utilizes mitochondrial oxidation to quantify cell proliferation. […]

The subject of assay [2] is proliferating cell nuclear antigen (PCNA). In words: PCNA Western blot in PANC-1 cells. Conditions: PANC-1, 5.5 mM sugar, 48 h, compared to 2 mM glucose. Here is the method: FIG. 19 depicts PCNA expression in accordance with an embodiment of the present invention. PANC-1 cells were plated in 2 mM, and 5.5 mM glucose, or 5.5 mM fructose for 48 h, after which proliferating cell nuclear antigen (PCNA) levels were measured by Western blot analysis.
Additionally, protein extracts were harvested in RIPA buffer from the PANC-1 cells following 2 mM, 5.5 mM glucose-, and fructose-treatment for 48 h, analyzed by Western blot, and immunoblotted using a specific monoclonal antibody to proliferating cell nuclear antigen (PCNA).

For assay [3], the system named is AP-1 activation in PANC-1 cells. As to the kind of experiment: AP-1 probe binding assay, PANC-1 nuclear extracts. The following applies: PANC-1, 5.5 mM fructose, 48 h. Here is the method:
FIG. 24 depicts luciferase activity of PANC-1 cells and primary culture of surgically resected pancreatic tumor cells in accordance with an embodiment of the present invention. PANC-1 pancreatic cancer cells and a primary culture of a surgically resected pancreatic tumor were incubated in 2 mM glucose, 5.5 mM glucose or 5.5 mM fructose for 48 h, after which nuclear extracts were incubated with a biotinylated AP-1 probe, and detected by an antibody-linked colorimetric method. *, p<0.01
In separate experiments PANC-1 cells, and primary cultures of surgically resected pancreatic tumors were incubated in 2 mM glucose, or 5.5 mM glucose or 5.5 mM fructose for 48 h, after which nuclear extracts were incubated with a biotinylated AP-1 probe in binding buffer. AP-1/AP1 probe complexes were next conjugated to a streptavidin-coated assay plate and detected using an AP-1 specific antibody, followed by binding of a horseradish-peroxidase conjugated secondary antibody, and detection by a colorimetric reagent.

Assay [4] deals with uric acid production in PANC-1 cells. As to the kind of experiment: Uricase activity / uric acid production in PANC-1 conditioned medium. The following applies: 5.5 mM fructose. The procedure:
FIG. 32 depicts uric acid productionin PANC-1 cells in accordance with an embodiment of the present invention. Uric acid production in pancreatic cancer PANC-1 cells following incubation in 2 mM glucose, 5.5 mM glucose, and 5.5 mM fructose for 24 h, 48, 72, and 96 h respectively, p<0.01 5.5 mM fructose versus 5.5 mM glucose.
Based on the metabolomic studies which led the inventors to believe that fructose was metabolized in pancreatic cancer cells in large part to generate nucleic acids, the inventors devised a series of experiments to examine nucleic acid synthesis in the pancreatic cancer cells following either glucose or fructose-treatment. PANC-1 cells were incubated as before in 5.5 mM glucose or fructose for 24 h, following an ELISA-based fluorimetric assay (Amplex Red Uric acid uricase assay kit, Invitrogen) was employed to measure uricase activity in conditioned medium derived from the pancreatic cancer cells (Shi Y, Evans J E, Rock K L. Molecular identification of a danger signal that alerts the immune system to dying cells Nature 425, 516-21, 2003). Uricase activity correlates highly with uric acid production, a purine by-product of nucleic acid synthesis. […] Fluoresence was measured in a fluorescence microplate reader using excitation at 530 nm and detection at 590 nm, and the assay can detect levels as low as 100 nM uric acid.

Take `O=C(CO)[C@@H](O)[C@H](O)[C@H](O)CO` [fructose]: the “difference in proliferative rates, fructose vs glucose” value in assay [1] (PANC-1, 5.5 mM fructose vs 5.5 mM glucose, 48 h) was about 13%. Further, in assay [1] (PANC-1, 5.5 mM fructose vs 5.5 mM glucose, 72 h), the “higher proliferative rate, fructose vs glucose” value was determined as 23%. In assay [1] (PANC-1, 72 h), the “proliferative rates in 5 mM fructose compared to 25 mM glucose” value is on record as “higher proliferative rates”. For the same compound, the “cell proliferation with admixed glucose (0-15 mM) and fructose (0-15 mM)” value in assay [1] (PANC-1, 72 h, fructose concentrations of 6 mM and above, regardless of glucose concentration) was “an increase in cell proliferation”. Also, the PCNA expression result in assay [2] is listed as “highest PCNA levels”. Further, the “AP-1 luciferase reporter activity higher than in 5.5 mM glucose” value in assay [3] is listed as “approximately 40%”. Further, the “uricase activity higher than glucose-treated cells” value is about 20% in assay [4] (96 h) and about 50% in assay [4] (120 h).

(Values after US20090232735A1, “USE OF FRUCTOSE-BASED THERAPIES FOR THE TREATMENT OF CANCER” (CEDARS-SINAI MEDICAL CENTER, priority 2005, published 2009).)
